Counter-ions that a name gives are not always drawn. Like-named read-outs stand apart in the source and are kept apart here.
Legend:
Type in all cases: biochemical
CDK1/CCNB1 = CDK1/CCNB1 (Homo sapiens, UniProt P06493); assay: CDK1 homogeneous time-resolved fluorescence (HTRF) kinase assay
How it was run: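 High-ATP (1 mM) HTRF assay with 0.5 nM CDK1/cyclin B1 and 50 nM ULight-4E-BP1 (Thr37/46) substrate, 60 min at 23 °C after 20-min compound preincubation. IC50 values come from dose-response curves.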

CDK6/CCND1 = CDK6/CCND1 (Homo sapiens, UniProt Q00534); assay: CDK6 homogeneous time-resolved fluorescence (HTRF) kinase assay
How it was run: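 1 nM enzyme, 1 mM ATP, 50 nM ULight-4E-BP1 (Thr37/46) peptide, 1% DMSO; 20 min compound preincubation, 60 min reaction, 23 °C. EDTA stop, 2 nM Eu-anti-phospho-4E-BP1 antibody 60 min. TR-FRET 665 nm (or 665/615 ratio); IC50 from 11-point half-log titration, top 10 μM.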

CDK2/CCNE1 = CDK2/CCNE1 (Homo sapiens, UniProt P24941); assay: CDK2 homogeneous time-resolved fluorescence (HTRF) kinase assay
How it was run: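 CDK2/CCNE1 (3 nM) preincubated 20 min at 23 °C with compound, then reacted 60 min at 23 °C with 1 mM ATP and 50 nM ULight-4E-BP1 (Thr37/46) peptide. Stopped with EDTA, phospho-peptide detected by Eu-anti-phospho antibody (665 nm or 665/615 ratio). IC50 from 11-point half-log titrations typically starting at 10 μM.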

CDK4/CCND3 = CDK4/CCND3 (Homo sapiens, UniProt P11802); assay: CDK4 homogeneous time-resolved fluorescence (HTRF) kinase assay
How it was run: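 Compounds were preincubated with 1.5 nM CDK4/CCND3 for 20 min at 23 °C in HEPES buffer (pH not given), then reacted 60 min with 1 mM ATP and 50 nM ULight-4E-BP1 (Thr37/46) peptide. EDTA stop, Eu-anti-phospho-4E-BP1 detection; 665/615 nm ratio; IC50 from 11-point half-log titrations from 10 μM.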

[1] = >250 nM, CDK1/CCNB, read-out: CDK1/CCNB IC50 >250 nM
[2] = >250 nM, CDK6/CCND, 1 mM ATP, read-out: CDK6/CCND IC50, >250 nM
[3] = 25-250 nM, CDK2/CCNE, read-out: CDK2/CCNE IC50, 25-250 nM
[4] = >250 nM, CDK4/CCND, read-out: CDK4/CCND IC50, >250 nM
[5] = 25-250 nM, CDK6/CCND, 1 mM ATP, read-out: CDK6/CCND IC50, 25-250 nM
[6] = <25 nM, CDK2/CCNE, read-out: CDK2/CCNE IC50, <25 nM
[7] = 0.5 nM CDK1/CCNB1, 1 mM ATP, read-out: CDK1/CCNB IC50 >250 nM
[8] = 3 nM CDK2/CCNE1, 1 mM ATP, read-out: CDK2/CCNE IC50 25-250 nM
[9] = 1.5 nM CDK4/CCND3, 1 mM ATP, read-out: CDK4/CCND IC50 25-250 nM
[10] = 1 nM CDK6/CCND1, 1 mM ATP, read-out: CDK6/CCND IC50 >250 nM
[11] = 3 nM CDK2/CCNE1, 1 mM ATP, read-out: CDK2/CCNE IC50 >250 nM
[12] = 1.5 nM CDK4/CCND3, 1 mM ATP, read-out: CDK4/CCND IC50 >250 nM

CDK6/CCND1, sequence (Q00534 whole entry): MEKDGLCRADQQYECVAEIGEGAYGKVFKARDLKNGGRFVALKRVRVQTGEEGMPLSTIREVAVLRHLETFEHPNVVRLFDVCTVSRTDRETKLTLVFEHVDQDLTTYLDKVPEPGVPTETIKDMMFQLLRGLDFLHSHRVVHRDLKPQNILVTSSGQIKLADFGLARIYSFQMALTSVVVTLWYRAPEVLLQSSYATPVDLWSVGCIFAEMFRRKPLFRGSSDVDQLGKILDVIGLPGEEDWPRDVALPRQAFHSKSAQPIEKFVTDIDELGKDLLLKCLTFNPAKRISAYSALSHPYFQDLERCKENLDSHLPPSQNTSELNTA
CDK6/CCND1, sequence (P24385 whole entry partner): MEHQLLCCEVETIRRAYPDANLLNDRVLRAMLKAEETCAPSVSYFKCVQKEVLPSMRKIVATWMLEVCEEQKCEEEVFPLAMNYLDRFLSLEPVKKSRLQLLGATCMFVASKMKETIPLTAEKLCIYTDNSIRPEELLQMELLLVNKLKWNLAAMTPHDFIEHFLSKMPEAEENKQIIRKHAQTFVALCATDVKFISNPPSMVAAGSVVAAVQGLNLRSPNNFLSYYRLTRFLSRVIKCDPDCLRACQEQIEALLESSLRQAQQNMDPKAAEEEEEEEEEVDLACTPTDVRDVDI
CDK4/CCND3, sequence (P11802 whole entry): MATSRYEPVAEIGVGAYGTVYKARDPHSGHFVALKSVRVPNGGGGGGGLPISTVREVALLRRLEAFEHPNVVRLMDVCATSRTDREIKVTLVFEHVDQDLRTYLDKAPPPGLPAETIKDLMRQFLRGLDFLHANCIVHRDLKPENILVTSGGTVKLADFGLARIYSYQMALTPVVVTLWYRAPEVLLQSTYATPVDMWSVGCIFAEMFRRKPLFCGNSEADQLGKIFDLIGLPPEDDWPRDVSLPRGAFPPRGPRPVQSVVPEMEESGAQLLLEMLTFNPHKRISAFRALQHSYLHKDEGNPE
CDK4/CCND3, sequence (P30281 whole entry partner): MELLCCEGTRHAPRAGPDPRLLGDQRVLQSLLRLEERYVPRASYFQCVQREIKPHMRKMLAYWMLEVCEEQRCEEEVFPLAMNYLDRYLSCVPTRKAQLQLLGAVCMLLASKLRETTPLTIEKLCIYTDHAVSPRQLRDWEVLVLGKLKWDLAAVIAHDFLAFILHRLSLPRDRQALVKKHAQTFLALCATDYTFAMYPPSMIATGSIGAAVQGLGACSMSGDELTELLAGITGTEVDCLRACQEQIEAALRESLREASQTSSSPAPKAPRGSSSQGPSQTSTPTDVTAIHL
CDK1/CCNB1, sequence (P06493 whole entry): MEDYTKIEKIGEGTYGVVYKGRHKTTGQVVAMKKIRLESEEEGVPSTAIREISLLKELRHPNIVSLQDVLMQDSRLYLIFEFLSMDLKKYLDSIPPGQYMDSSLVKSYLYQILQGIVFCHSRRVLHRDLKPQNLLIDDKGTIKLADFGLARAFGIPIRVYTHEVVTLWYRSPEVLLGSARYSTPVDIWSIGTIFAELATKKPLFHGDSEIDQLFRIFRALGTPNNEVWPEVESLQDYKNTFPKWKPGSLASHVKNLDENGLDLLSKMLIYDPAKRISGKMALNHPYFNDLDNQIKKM
CDK1/CCNB1, sequence (P14635 whole entry partner): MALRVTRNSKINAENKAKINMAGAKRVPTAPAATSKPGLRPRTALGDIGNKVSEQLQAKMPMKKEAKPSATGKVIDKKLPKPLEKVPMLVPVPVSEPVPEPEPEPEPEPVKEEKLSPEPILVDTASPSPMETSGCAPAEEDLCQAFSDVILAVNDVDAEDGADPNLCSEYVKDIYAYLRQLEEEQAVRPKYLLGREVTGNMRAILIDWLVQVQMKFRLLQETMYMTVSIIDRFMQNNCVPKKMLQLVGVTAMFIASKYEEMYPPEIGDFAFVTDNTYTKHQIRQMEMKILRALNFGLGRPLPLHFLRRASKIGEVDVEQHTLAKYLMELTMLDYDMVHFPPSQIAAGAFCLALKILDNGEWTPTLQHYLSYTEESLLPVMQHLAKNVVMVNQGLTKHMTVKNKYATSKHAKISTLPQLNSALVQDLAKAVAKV

Structure (SMILES) | IC50 (CDK1/CCNB1; [1]) [nM] | IC50 (CDK6/CCND1; [2]) [nM] | IC50 (CDK2/CCNE1; [3]) [nM] | IC50 (CDK4/CCND3; [4]) [nM] | IC50 (CDK1/CCNB1; [7]) [nM] | IC50 (CDK6/CCND1; [10]) [nM] | IC50 (CDK4/CCND3; [12]) [nM] | other results
Cc1c(-c2nccc3cnc(Nc4ccc(NS(=O)(=O)c5cc6ccccc6o5)cc4)cc23)ccc2c1cnn2CC(C)(C)O [Example 776, N-(4-((5-(1-(2-hydroxy-2-methylpropyl)-4-methyl-1H-indazol-5-yl)-2,6-naphthyridin-3-yl)amino)phenyl)benzofuran-2-sulfonamide] | > 250 | > 250 | 25 to 250 | > 250 |  |  |  | 
Cc1c(-c2nccc3cnc(Nc4ccc(S(C)(=O)=O)cc4O)cc23)ccc2c1cnn2CC(C)(C)O [Example 784, 2-((5-(1-(2-hydroxy-2-methylpropyl)-4-methyl-1H-indazol-5-yl)-2,6-naphthyridin-3-yl)amino)-5-(methylsulfonyl)phenol] | > 250 |  |  | > 250 |  |  |  | IC50 (CDK6/CCND1; [5]): 25 to 250 nM; IC50 (CDK2/CCNE1; [6]): < 25 nM
Cc1c(-c2ncc(F)c3cnc(Nc4ccc(S(C)(=O)=O)cc4)cc23)ccc2c1cnn2CC(C)(C)O [Example 788, 1-(5-(4-fluoro-7-((4-(methylsulfonyl)phenyl)amino)-2,6-naphthyridin-1-yl)-4-methyl-1H-indazol-1-yl)-2-methylpropan-2-ol] | > 250 | > 250 | 25 to 250 | > 250 |  |  |  | 
Cc1c(-c2nccc3cnc(Nc4ccc(S(=O)(=O)Nc5nc(C(F)(F)F)cc(C(F)(F)F)n5)cc4)cc23)ccc2c1cnn2CC(C)(C)O [Example 789, N-(4,6-bis(trifluoromethyl)pyrimidin-2-yl)-4-((5-(1-(2-hydroxy-2-methylpropyl)-4-methyl-1H-indazol-5-yl)-2,6-naphthyridin-3yl)amino)benzenesulfonamide] | > 250 | > 250 | 25 to 250 | > 250 |  |  |  | 
COc1ccc(C(=O)N2CC[C@@H](Nc3cc4c(-c5ccc6c(cnn6CC(C)(C)O)c5C)nccc4cn3)C2)cc1 [Example 790, (R)-(3-((5-(1-(2-hydroxy-2-methylpropyl)-4-methyl-1H-indazol-5-yl)-2,6-naphthyridin-3-yl)amino)pyrrolidin-1-yl)(4-methoxyphenyl)methanone] | > 250 | > 250 |  | > 250 |  |  |  | IC50 (CDK2/CCNE1; [6]): < 25 nM
CS(=O)(=O)c1ccc(Nc2cc3c(C#Cc4cnc(F)c(F)c4)nccc3cn2)cc1 [Example 852, 5-((5,6-difluoropyridin-3-yl)ethynyl)-N-(4-(methylsulfonyl)phenyl)-2,6-naphthyridin-3-amine] | > 250 | > 250 | 25 to 250 | > 250 |  |  |  | 
N#Cc1ccc(C#Cc2nccc3cnc(Nc4ccc5c(c4)OCCS5(=O)=O)cc23)cc1 [Example 862, 4-((7-((4,4-dioxido-2,3-dihydrobenzo[b][1,4]oxathiin-7-yl)amino)-2,6-naphthyridin-1-yl)ethynyl)benzonitrile] | > 250 | > 250 | 25 to 250 | > 250 |  |  |  | 
CN1CCN(c2ccc(C#Cc3nccc4cnc(Nc5ccc(S(=O)(=O)O)cc5)cc34)cc2)CC1 [Example 863, 4-((5-((4-(4-methylpiperazin-1-yl)phenyl)ethynyl)-2,6-naphthyridin-3-yl)amino)benzenesulfonic acid] | > 250 | > 250 | 25 to 250 | > 250 |  |  |  | 
CC#Cc1nccc2cnc(Nc3ccc(S(=O)(=O)Nc4nccc(N5CCN(C)CC5)n4)cc3)cc12 [Example 877, N-(4-(4-methylpiperazin-1-yl)pyrimidin-2-yl)-4-((5-(prop-1-yn-1-yl)-2,6-naphthyridin-3-yl)amino)benzenesulfonamide] | > 250 | > 250 | 25 to 250 | > 250 |  |  |  | 
Cc1c(-c2nccc3cnc(Nc4cnc(O)c(N5CCN(CCO)CC5)c4)cc23)ccc2c1cnn2CC(C)(C)O [Example 887, 5-((5-(1-(2-hydroxy-2-methylpropyl)-4-methyl-1H-indazol-5-yl)-2,6-naphthyridin-3-yl)amino)-3-(4-(2-hydroxyethyl)piperazin-1-yl)pyridin-2-ol] | > 250 | > 250 |  | > 250 |  |  |  | IC50 (CDK2/CCNE1; [6]): < 25 nM
CC(=O)NC1CCN(c2ccc(Nc3cc4c(-c5ccc6c(cnn6CC(C)(C)O)c5C)nccc4cn3)cc2S(C)(=O)=O)C1 (stereo not shown) [Example 930, N-(1-(4-((5-(1-(2-hydroxy-2-methylpropyl)-4-methyl-1H-indazol-5-yl)-2,6-naphthyridin-3-yl)amino)-2-(methylsulfonyl)phenyl)pyrrolidin-3-yl)acetamide] |  |  |  |  |  |  |  | IC50 (CDK1/CCNB1; 25-250 nM, CDK1/CCNB, read-out: CDK1/CCNB IC50, 25-250 nM): 25 to 250 nM; IC50 (CDK6/CCND1; [5]): 25 to 250 nM; IC50 (CDK2/CCNE1; [6]): < 25 nM; IC50 (CDK4/CCND3; 25-250 nM, CDK4/CCND, read-out: CDK4/CCND IC50, 25-250 nM): 25 to 250 nM
CS(=O)(=O)c1ccc(Nc2cc3c(C#Cc4ccc5c(c4)CCNC5)c(C#N)ccc3cn2)cc1 [Example 947, 3-((4-(methylsulfonyl)phenyl)amino)-5-((1,2,3,4-tetrahydroisoquinolin-6-yl)ethynyl)isoquinoline-6-carbonitrile] |  |  |  |  | > 250 |  |  | IC50 (CDK6/CCND1; 1 nM CDK6/CCND1, 1 mM ATP, read-out: CDK6/CCND IC50 25-250 nM): 25 to 250 nM; IC50 (CDK2/CCNE1; [8]): 25 to 250 nM; IC50 (CDK4/CCND3; [9]): 25 to 250 nM
CS(=O)(=O)c1ccc(Nc2ncc3ccc(C#N)c(C#Cc4ccc5c(c4)CCNC5)c3n2)cc1 [Example 948, 2-((4-(methylsulfonyl)phenyl)amino)-8-((1,2,3,4-tetrahydroisoquinolin-6-yl)ethynyl)quinazoline-7-carbonitrile, TFA Salt] |  |  |  |  | > 250 | > 250 | > 250 | IC50 (CDK2/CCNE1; [11]): > 250 nM
CS(=O)(=O)c1ccc(Nc2ncc3ccnc(C#Cc4ccc(C#N)cc4)c3n2)cc1 [Example 949, 4-((2-((4-(methylsulfonyl)phenyl)amino)pyrido[3,4-d]pyrimidin-8-yl)ethynyl)benzonitrile] |  |  |  |  | > 250 | > 250 | > 250 | IC50 (CDK2/CCNE1; [11]): > 250 nM
CS(=O)(=O)c1ccc(Nc2cc3c(C4=CCCCC4)ncnc3cn2)cc1 [Example 950, 4-(cyclohex-1-en-1-yl)-N-(4-(methylsulfonyl)phenyl)pyrido[3,4-d]pyrimidin-6-amine] |  |  |  |  | > 250 | > 250 | > 250 | IC50 (CDK2/CCNE1; [8]): 25 to 250 nM
CS(=O)(=O)c1ccc(Nc2cc3c(N4CCC(C#N)CC4)c(C#N)cnc3cn2)cc1 [Example 953, 4-(4-cyanopiperidin-1-yl)-6-((4-(methylsulfonyl)phenyl)amino)-1,7-naphthyridine-3-carbonitrile] |  |  |  |  | > 250 | > 250 | > 250 | IC50 (CDK2/CCNE1; [11]): > 250 nM
Cc1cc(N2CCC(C#N)CC2)c2nc(Nc3ccc(S(C)(=O)=O)cc3)ncc2c1 [Example 954, 1-(6-methyl-2-((4-(methylsulfonyl)phenyl)amino)quinazolin-8-yl)piperidine-4-carbonitrile] |  |  |  |  | > 250 | > 250 | > 250 | IC50 (CDK2/CCNE1; [11]): > 250 nM
CS(=O)(=O)c1ccc(Nc2ncc3ccc(C#N)c(C#Cc4ccc(C#N)cc4)c3n2)cc1 [Example 955, 8-((4-cyanophenyl)ethynyl)-2-((4-(methylsulfonyl)phenyl)amino) quinazoline-7-carbonitrile] |  |  |  |  | > 250 | > 250 | > 250 | IC50 (CDK2/CCNE1; [11]): > 250 nM
CS(=O)(=O)c1ccc(Nc2ncc3ccnc(C4=CCCCC4)c3n2)cc1 [Example 956, 8-(cyclohex-1-en-1-yl)-N-(4-(methylsulfonyl)phenyl)pyrido[3,4-d]pyrimidin-2-amine] |  |  |  |  |  |  |  | IC50 (CDK1/CCNB1; 0.5 nM CDK1/CCNB1, 1 mM ATP, read-out: CDK1/CCNB IC50 25-250 nM): 25 to 250 nM; IC50 (CDK6/CCND1; 1 nM CDK6/CCND1, 1 mM ATP, read-out: CDK6/CCND IC50 <25 nM): < 25 nM; IC50 (CDK2/CCNE1; 3 nM CDK2/CCNE1, 1 mM ATP, read-out: CDK2/CCNE IC50 <25 nM): < 25 nM; IC50 (CDK4/CCND3; [9]): 25 to 250 nM

— patent US20260325533A1, “CDK INHIBITOR COMPOUNDS” (ALEKSIA THERAPEUTICS, INC., priority 2023, published 2026)
